The text below walks through data of US6590083B1, “Ketolide antibacterials” (Ortho-McNeil Pharmaceutical, Inc., priority 1999, dated 2003).

Values after ≈ are worked out from the molar mass of the structure shown.

Common to all, as to assay: In vitro susceptibility testing, MIC by NCCLS broth microdilution
The subject of one test is S. pneumoniae ATCC49619. The class given is cell-based, Streptococcus pneumoniae. Conditions: media with 2.5% lysed horse blood, 35° C. As to the method:
(§1) Minimum inhibitory concentrations (“MICs”) were determined by the NCCLS broth microdilution procedure for susceptibility testing for bacteria that grow aerobically (National Committee for Clinical Laboratory Standards, 1997. Methods for dilution antimicrobial Susceptibility tests for bacteria that grow aerobically, 4th ed. Approved standard. NCCLS Document M7-A4. National Committee for Clinical Laboratory Standards, Villanova, Pa.). stock solutions were prepared on the day of the test and appropriate aliquots were added to cation adjusted Mueller-Hinton broth (CAMHB) or Haemophilus test media. Two-fold serial dilutions were prepared and added to wells in microtiter plates. Final test concentrations ranged from 16 to 0.015 μg/ml. Broth cultures of bacteria inoculated from growth on overnight plates for all test bacteria except Streptococcus pneumoniae and Haemophilus influenzae were incubated at 35° C. and then adjusted to the Kirby Bauer standard and diluted in CAMHB to achieve a final inoculum concentration of approximately 5×10^5 CFU/ml. Inocula for S. pneumoniae and H. influenzae were prepared by directly suspending colonies from an overnight plate, adjusting the turbidity and diluting as above. S. pneumoniae media was supplemented with 2.5% lysed horse blood. […]

The next test concerns E. faecalis ATCC29212. The class given is cell-based. To be noted: CAMHB, 35° C., 16-20 h. As to the method: (§2) Minimum inhibitory concentrations (“MICs”) were determined by the NCCLS broth microdilution procedure for susceptibility testing for bacteria that grow aerobically (National Committee for Clinical Laboratory Standards, 1997. Methods for dilution antimicrobial Susceptibility tests for bacteria that grow aerobically, 4th ed. Approved standard. NCCLS Document M7-A4. National Committee for Clinical Laboratory Standards, Villanova, Pa.). stock solutions were prepared on the day of the test and appropriate aliquots were added to cation adjusted Mueller-Hinton broth (CAMHB) or Haemophilus test media. Two-fold serial dilutions were prepared and added to wells in microtiter plates. Final test concentrations ranged from 16 to 0.015 μg/ml. Broth cultures of bacteria inoculated from growth on overnight plates for all test bacteria except Streptococcus pneumoniae and Haemophilus influenzae were incubated at 35° C. and then adjusted to the Kirby Bauer standard and diluted in CAMHB to achieve a final inoculum concentration of approximately 5×10^5 CFU/ml. Inocula for S. pneumoniae and H. influenzae were prepared by directly suspending colonies from an overnight plate, adjusting the turbidity and diluting as above. S. pneumoniae media was supplemented with 2.5% lysed horse blood. All plates were incubated in ambient air at 35° C. for […] for S. peteumoniae and Haemophilus influenzae and 16-20 h for all other bacteria.

The test system of the next test is S. aureus ATCC29213. The class given is cell-based. Conditions: CAMHB, 35° C., 16-20 h. As to the method: as §2
A further test concerns E. coli OC2605. The test is classed as cell-based. To be noted: CAMHB, 35° C., 16-20 h. As to the method: as §2
In another test the test system is H. influenzae OC4883. The class given is cell-based, Haemophilus influenzae. To be noted: Haemophilus test media, 35° C. As to the method: as §1

Take `CC[C@H]1OC(=O)[C@H](C)[C@@H](O[C@H]2C[C@@](C)(OC)[C@@H](O)[C@H](C)O2)[C@H](C)[C@@H](O[C@@H]2O[C@H](C)C[C@H](N(C)C)[C@H]2O)[C@](C)(O)C[C@@H](C)C(=O)[C@H](C)[C@@H](O)[C@]1(C)O` [Erythromycin]: the MIC was 0.06 µg/mL (≈ 0.0818 µM) against S. pneumoniae ATCC49619 (Streptococcus pneumoniae, ATCC49619, Table 3, Table 2 compounds); 1 µg/mL (≈ 1.36 µM) in the test on E. faecalis ATCC29212 (Enterococcus faecalis, ATCC29212, Table 3, Table 2 compounds); 0.5 µg/mL (≈ 0.681 µM) against S. aureus ATCC29213 (Staphylococcus aureus, ATCC29213, Table 3, Table 2 compounds); more than 16 µg/mL in the test with E. coli OC2605 (Escherichia coli, OC2605, Table 3, Table 2 compounds); 1 µg/mL (≈ 1.36 µM) with H. influenzae OC4883 (Haemophilus influenzae, OC4883, Table 3, Table 2 compounds). Further, in the test on S. pneumoniae ATCC49619 (Table 4, Formula III compounds), the “In Vitro Susceptibility (MIC) S. pneumoniae ATCC49619” value is 0.06 µg/mL. Further, the “In Vitro Susceptibility (MIC) E. faecalis ATCC29212” value with E. faecalis ATCC29212 (Table 4, Formula III compounds) was 1 µg/mL. The “In Vitro Susceptibility (MIC) S. aureus ATCC29213” value with S. aureus ATCC29213 (Table 4, Formula III compounds) was 0.5 µg/mL. For the same compound, the “In Vitro Susceptibility (MIC) E. coli OC2605” value in the test on E. coli OC2605 (Table 4, Formula III compounds) was more than 16 µg/mL. The “In Vitro Susceptibility (MIC) H. influenzae OC4883” value with H. influenzae OC4883 (Table 4, Formula III compounds) was 1 µg/mL.
